“And” between values parts separate entries of the source, which are not always exact repeats. Identical values can stand only once. “Also recorded” adds a separate entry of the source. Like-named read-outs stand apart in the source and are kept apart here.
Key:
[1] = Stability of the compound (IV) in storage at 25° C. (60% RH) and at 40° C. (75% RH); type: physicochemical; conditions: for Titre % Mean / Titre %: 3 months; for Titre % Mean: mean of samples; for Titre %: single samples
Method: The object of such study is the evaluation of the stability of the compound (IV) kept at a temperature equivalent to 25° C. (60% RH) and at 40° C. (75% RH). In particular, such study aims at evaluating the titre of the compound (IV) in the stability test at 25° C. (60% RH) at 3, 6, 9, 12, 18, 24, 36, 48, 60 months and in the stability test accelerated at 40° C. (75% RH) at 3, 6, 9, 12 months.
The compound (IV) is divided into 10 Eppendorfs numbered from 1 to 10, containing about 50 mg of product and stored in a cellar at 25° C. 60% RH.
Other 4 Eppendorfs numbered from 11 to 14, containing about 50 mg of product are introduced into an oven at a temperature equivalent to 40° C. 75% RH.

[2] = Stability in simulated gastric and simulated intestinal fluids; type: physicochemical
Method: Such study is conducted with the aim of evaluating the stability of the compound (IV) at […] in absence of enzymes of the intestinal bacterial flora.
(§1) The stability of the compound (IV) is compared to that of known reference standards.

[3] = Stability in human plasma (hydrolysis by plasma esterases); type: in vitro ADME
Method: Such study is conducted with the aim of evaluating possible hydrolysis of the compound (IV) by the plasma esterases. The percentage of hydrolysis of the compound (IV) is compared to that of known reference standards.

[4] = Permeability on the Caco2 cellular line; type: in vitro ADME; conditions: human, Caco-2, Caco2
Method: (§2) Such study is conducted with the aim of evaluating the capacity of the molecule to permeate the intestinal epithelium and be absorbed thereby evaluating the Papp (apparent permeability coefficient). The Papp of the compound (IV) is compared to that of the known reference standards.

Caco2 cellular line = test: Permeability on the Caco2 cellular line; type: in vitro ADME
Method: as §2

[5] = Stability in murine intestinal homogenate; type: in vitro ADME, rat
Method: Such study is conducted with the aim of evaluating the stability of the compound (IV) in intestinal homogenate.
as §1

[6] = Hydrolysis in rat intestine preserved in different conditions; type: in vitro ADME
Method: Such study is conducted with the aim of surveying the stability of the compound (IV) in rat intestine homogenate preserved in different conditions: frozen at […] and at −80° C.
as §1

[7] = In vivo pharmacokinetic in the rat after i.v. and p.o. administration of compound (IV)
[8] = compound (IV) i.v. 5 mg/kg, rat, individual rats
[9] = compound (IV) i.v. 5 mg/kg, rat, individual rats, 5 mg/kg
[10] = compound (IV) oral gavage 50 mg/kg, rat, individual rats, 50 mg/kg

Titre % Mean ([1]; 25° C. 60% RH): 98.1%
Titre % ([1]; 25° C. 60% RH): 98.2% and 98.1%
Titre % Mean ([1]; 40° C. 75% RH): 101.2%
Titre % ([1]; 40° C. 75% RH): 99.8% and 102.6%
Titre ([1]; time t=0): 99.3%
% Residue ([2]; SGF, 30 min incubation): 97.3 ± 1.1%
% Residue ([2]; SGF, 60 min incubation): 99.9 ± 0.9%
% Residue ([2]; SIF, 30 min incubation): 97.4 ± 4.1%
% Residue ([2]; SIF, 60 min incubation): 103.2 ± 3.5%
Stability in SIF and SGF ([2]; both media): stable in both media
% Residue at 60 min ([3]; Human plasma, 60 min): 32.7 ± 2.6%
Hydrolysis in plasma ([3]; human plasma): high hydrolysis percentage
% hydrolysed ([3]; human plasma, after 1 hour of incubation): 67.3%
Papp A→B ([4]; Apical (pH 6.5) → Basolateral (pH 7.4), read-out: Papp A→B (nm/sec) Mean ± SD): 0.59 ± 0.12 ×10⁻⁶ cm/s
Papp B→A ([4]; B→A, read-out: Papp B→A (nm/sec) Mean ± SD): 0.24 ± 0.03 ×10⁻⁶ cm/s
A→B Mean mass balance % (Caco2 cellular line; A→B, Caco2): 69%
B→A Mean mass balance % (Caco2 cellular line; B→A, Caco2): 99%
BA/AB ratio (Caco2 cellular line; Caco2): 0.41
Permeability (Caco2 cellular line; Caco2): poor permeability
BA/AB ratio (Caco2 cellular line; Caco2, listed as compound (IV)): < 1
Substrate of P-gp (glycoprotein P) (Caco2 cellular line; from BA/AB ratio, Caco2): does not seem to be a substrate of P-gp
Permeability class (Caco2 cellular line; through the basolateral membrane of the Caco2 cell line): low
Residue percentage ([5]; rat intestinal homogenate, 25 μM, 30 min): 9.8 ± 1.1%
Residue percentage ([5]; rat intestinal homogenate, 25 μM, 1 hr): 12.2 ± 1.6%
Residue percentage ([5]; rat intestinal homogenate, 25 μM, 2 hrs): 10.1 ± 4.4%
Residue percentage ([5]; rat intestinal homogenate, 25 μM, 4 hrs): 24.5 ± 1.3(*) %
Residue percentage ([5]; rat intestinal homogenate, 50 μM, 30 min): 5.6 ± 0.6%
Residue percentage ([5]; rat intestinal homogenate, 50 μM, 1 hr): 4.4 ± 1.1%
Residue percentage ([5]; rat intestinal homogenate, 50 μM, 2 hrs): 7.3 ± 1.0%
Residue percentage ([5]; rat intestinal homogenate, 50 μM, 4 hrs): 5.5 ± 1.1%
Hydrolysis ([5]; tested at two concentrations (25 and 50 μM)): 90-95%
Metabolism in fresh rat intestine homogenate ([6]; fresh homogenate): metabolised quickly
Stability in rat intestine (residue %) ([6]; fresh homogenate, 15 min): 0.030 ± 0.015%
Stability in rat intestine (residue %) ([6]; fresh homogenate, 30 min): 0.031 ± 0.004%
Stability in rat intestine (residue %) ([6]; fresh homogenate, 60 min): 0.047 ± 0.021%
Stability in rat intestine (residue %) ([6]; homogenate 4° C., 15 min): 0.046 ± 0.004%
Stability in rat intestine (residue %) ([6]; homogenate 4° C., 30 min): 0.046 ± 0.022%
Stability in rat intestine (residue %) ([6]; homogenate 4° C., 60 min): 0.064 ± 0.008%
Stability in rat intestine (residue %) ([6]; homogenate −80° C., 15 min): 0.024 ± 0.007%
Stability in rat intestine (residue %) ([6]; homogenate −80° C., 30 min): 0.034 ± 0.001%
Stability in rat intestine (residue %) ([6]; homogenate −80° C., 60 min): 0.470 ± 0.012%
Stability in rat intestine (residue %) ([6]; intestine −80° C., 15 min): 0.145 ± 0.029%
Stability in rat intestine (residue %) ([6]; intestine −80° C., 30 min): 0.091 ± 0.038%
Stability in rat intestine (residue %) ([6]; intestine −80° C., 60 min): 0.098 ± 0.002%
Pharmacokinetic parameters ([7]; administered p.o. and i.v. in rats): good pharmacokinetic parameters
Metabolism in vivo ([7]; after i.v. and p.o. treatment, rat): metabolised quickly
Tlast [7, 8]: 1440 min
Tmax [7, 8]: 2 min
AUCinf [7, 9]: 18700 ng·min/mL and 22424 ng·min/mL
AUClast [7, 9]: 17271 ng·min/mL and 21300 ng·min/mL
Cl [7, 9]: 229.9 mL/min/kg and 191.8 mL/min/kg
Clast [7, 9]: 1.8 ng/mL and 1.7 ng/mL
Cmax [7, 9]: 529 ng/mL and 851.2 ng/mL
MRT [7, 9]: 209 min and 175 min
T½ [7, 9]: 547.1 min and 451.8 min
Vdss [7, 9]: 115.3 L/kg and 51.9 L/kg
Tlast Mean ([7]; compound (IV) i.v. 5 mg/kg, rat, mean): 1440 min
AUCinf [7, 10]: 3985 ng·min/mL and 5954 ng·min/mL
AUClast [7, 10]: 3943 ng·min/mL and 5925 ng·min/mL
Clast [7, 10]: 2.9 ng/mL and 0.8 ng/mL and 1.3 ng/mL
Cmax [7, 10]: 104 ng/mL and 174 ng/mL
MRTlast [7, 10]: 48 min and 32 min and 23 min
Tlast [7, 10]: 240 min (2×) and 120 min
Tmax [7, 10]: 30 min and 15 min and 5 min
Tlast Mean ([7]; compound (IV) oral gavage 50 mg/kg, rat, mean): 200 min
bioavailability ([7]; plasma, oral gavage 50 mg/kg vs i.v. 5 mg/kg, rat, read-out: Mean Fpo 0_inf (%) (mean p.o. bioavailability)): 2.4%
AUC(0-inf) ([7]; rat, plasma, iv, 5 mg/kg, compound (IV) i.v. 5 mg/kg, rat, individual rats, read-out: AUCinf (converted)): 341 ng·h/mL
AUC(0-t) ([7]; rat, plasma, iv, 5 mg/kg, compound (IV) i.v. 5 mg/kg, rat, individual rats, read-out: AUClast (converted)): 296 ng·h/mL
clearance ([7]; rat, plasma, iv, 5 mg/kg, compound (IV) i.v. 5 mg/kg, rat, individual rats, read-out: Cl): 210 mL/min/kg
concentration at 1440 min ([7]; rat, plasma, iv, 5 mg/kg, compound (IV) i.v. 5 mg/kg, rat, individual rats, read-out: Clast): 2.9 ng/mL
Cmax ([7]; rat, plasma, iv, 5 mg/kg, compound (IV) i.v. 5 mg/kg, rat, individual rats, read-out: Cmax): 598 ng/mL
MRT ([7]; rat, plasma, iv, 5 mg/kg, compound (IV) i.v. 5 mg/kg, rat, individual rats, read-out: MRT (converted)): 273 min
Tmax ([7]; rat, plasma, iv, 5 mg/kg, compound (IV) i.v. 5 mg/kg, rat, individual rats, read-out: Tmax (converted)): 2 min
half-life ([7]; rat, plasma, iv, 5 mg/kg, compound (IV) i.v. 5 mg/kg, rat, individual rats, read-out: T½): 638 min
AUC(0-inf) ([7]; rat, plasma, iv, 5 mg/kg, compound (IV) i.v. 5 mg/kg, rat, mean, read-out: AUCinf Mean (converted)): 342 ng·h/mL
AUC(0-t) ([7]; rat, plasma, iv, 5 mg/kg, compound (IV) i.v. 5 mg/kg, rat, mean, read-out: AUClast Mean (converted)): 313 ng·h/mL
clearance ([7]; rat, plasma, iv, 5 mg/kg, compound (IV) i.v. 5 mg/kg, rat, mean, read-out: Cl Mean): 211 mL/min/kg
concentration at 1440 min ([7]; rat, plasma, iv, 5 mg/kg, compound (IV) i.v. 5 mg/kg, rat, mean, read-out: Clast Mean): 2.1 ng/mL
Cmax ([7]; rat, plasma, iv, 5 mg/kg, compound (IV) i.v. 5 mg/kg, rat, mean, read-out: Cmax Mean): 659 ng/mL
MRT ([7]; rat, plasma, iv, 5 mg/kg, compound (IV) i.v. 5 mg/kg, rat, mean, read-out: MRT Mean (converted)): 219 min
Tmax ([7]; rat, plasma, iv, 5 mg/kg, compound (IV) i.v. 5 mg/kg, rat, mean, read-out: Tmax Mean (converted)): 2 min
half-life ([7]; rat, plasma, iv, 5 mg/kg, compound (IV) i.v. 5 mg/kg, rat, mean, read-out: T½ Mean): 546 min
Vd ([7]; rat, plasma, iv, 5 mg/kg, compound (IV) i.v. 5 mg/kg, rat, mean, read-out: Vdss Mean): 83.5 L/kg
concentration at 200 min ([7]; rat, plasma, oral, 50 mg/kg, compound (IV) oral gavage 50 mg/kg, rat, mean, read-out: Clast Mean): 2.8 ng/mL
concentration at 4 h ([7]; rat, plasma, po, 50 mg/kg, after p.o. administration, rat, 4 hours): 1 ng/mL
Cmax ([7]; rat, plasma, po, 50 mg/kg, after p.o. administration, rat, read-out: Cmax): 95 ng/mL
AUC(0-inf) ([7]; rat, plasma, po, 50 mg/kg, compound (IV) oral gavage 50 mg/kg, rat, individual rats, read-out: AUCinf (converted)): 76.5 ng·h/mL
AUC(0-t) ([7]; rat, plasma, po, 50 mg/kg, compound (IV) oral gavage 50 mg/kg, rat, individual rats, read-out: AUClast (converted)): 67.4 ng·h/mL
Cmax ([7]; rat, plasma, po, 50 mg/kg, compound (IV) oral gavage 50 mg/kg, rat, individual rats, read-out: Cmax): 89 ng/mL
AUC(0-inf) ([7]; rat, plasma, po, 50 mg/kg, compound (IV) oral gavage 50 mg/kg, rat, mean, read-out: AUCinf Mean (converted)): 80.7 ng·h/mL
AUC(0-t) ([7]; rat, plasma, po, 50 mg/kg, compound (IV) oral gavage 50 mg/kg, rat, mean, read-out: AUClast Mean (converted)): 77.3 ng·h/mL
Cmax ([7]; rat, plasma, po, 50 mg/kg, compound (IV) oral gavage 50 mg/kg, rat, mean, read-out: Cmax Mean): 122 ng/mL
MRT last ([7]; rat, plasma, po, 50 mg/kg, compound (IV) oral gavage 50 mg/kg, rat, mean, read-out: MRTlast Mean (converted)): 35 min
Tmax ([7]; rat, plasma, po, 50 mg/kg, compound (IV) oral gavage 50 mg/kg, rat, mean, read-out: Tmax Mean (converted)): 16.7 min
Compound: CCCC(=O)Oc1ccc(N)cc1C(=O)O.Cl [Compound (IV), 5-amino-2-(butyryloxy)benzoic acid]
Stability in storage ([1]; 25° C. 60% RH and 40° C. 75% RH): does not seem to be subjected to considerable modifications; also recorded: stable in storage
Stability in the rat intestine ([5]; rat intestinal homogenate): very unstable in the rat intestine; also recorded: quickly metabolised in the rat intestine

Reference: patent publication US9193673B2, “Derivatives of mesalazine, process of their preparation and their use in the treatment of intestinal inflammatory diseases” (SOFAR SPA, priority 2010, dated 2015)
